Assay results taken from patent publication US11647748B2, “Sulphonamides as methionine metabolic pathway inhibitors” (MIGAL-GALILEE RESEARCH INSTITUTE LTD., priority 2018, dated 2023).

Key:
Arabidopsis thaliana = assay: Arabidopsis root length (root growth inhibition); type: in vivo; details: 50 μM compound; for Arabidopsis (relative to DMSO): root length ratio vs DMSO control, lower = shorter root; for Arabidopsis root length: ratio vs DMSO control, Table 4
Protocol: Finally, FIGS. 7a-7h are the photos of the Arabidopsis thaliana plants and the inhibition of their roots growth by the compounds of the present invention. These experiments were conducted as follows. Seeds were washed with 70% ethanol for one minute and then with sterile water. Sterilisation was performed with 50% bleaching solution (3%) and 0.2% Triton x-100 for ten minutes followed by a five-time wash with sterile water. The seeds were placed in six well-plates with half Murashige and Skoog medium (MS; Duchefa, Haarlem, Netherlands), containing 1% sucrose (w/v), pH 5.8. The plates with Arabidopsis thaliana seeds were placed at 4° C. for two days and then transferred for seven days to growth chamber (22±2° C.) at day/light cycles of 16/8 h. The plates were placed vertically. In each plate, a control including 0.1% DMSO in the medium was added. The compounds of the present invention were tested for their herbicidal efficiency by diluting 1000 times a 50 mM stock in DMSO leading to a final concentration of 50 μM with 0.1% DMSO.
In Tables 1 and 2 above, Arabidopsis root length was measured after addition of 50-μM compound compared with the negative control (DMSO) treatment. Length values indicate the ratio between non-treated plates ([…]) and the length after the addition of 50 μM of each compound. Lower values indicate shorter root length, and consequently, larger effect.

Tobacco CGS [1] = molecular target: T1, Tobacco CGS (Nicotiana tabacum, UniProt Q9ZPL5); assay: TEV experiment (relative to DMSO); type: biochemical; design: 6xHIS (N, cleaved yes); GB1 solubility tag (N, cleaved yes); made in house; host or cells: E. coli BL-21
T1 sequence (Q9ZPL5 79-540): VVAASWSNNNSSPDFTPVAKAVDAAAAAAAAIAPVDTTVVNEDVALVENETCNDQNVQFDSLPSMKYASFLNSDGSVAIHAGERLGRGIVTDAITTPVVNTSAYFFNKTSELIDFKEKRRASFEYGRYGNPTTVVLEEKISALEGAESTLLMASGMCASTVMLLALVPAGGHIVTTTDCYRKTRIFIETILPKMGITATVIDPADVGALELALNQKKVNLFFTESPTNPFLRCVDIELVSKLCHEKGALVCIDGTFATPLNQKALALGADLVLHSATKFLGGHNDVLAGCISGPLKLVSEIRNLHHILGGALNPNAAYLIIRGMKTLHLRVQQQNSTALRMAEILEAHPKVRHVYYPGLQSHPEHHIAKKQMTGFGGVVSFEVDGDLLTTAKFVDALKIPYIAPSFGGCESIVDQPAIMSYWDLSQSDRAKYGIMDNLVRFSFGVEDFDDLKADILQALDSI
Protocol: As discussed above, the first reaction in methionine biosynthesis in plants is catalyzed by the CGS enzyme. In this reaction, the formation of cystathionine is conducted by the γ-replacement of the phosphoryl substituent of O-phospho-homoserine by cysteine and consecutive release of an orthophosphate group.
Expression of recombinant CGS was done by transforming the pET-11 vector containing the DNA sequence of Tobacco CGS with a 6×HIS tag and GB1 solubility tag followed by TEV cleavage site into BL-21 cells. These cells were cultured at 37° C. and optical density (OD)=0.8 protein at 600 nm, and the expression was induced by addition of 1 mM IPTG for 16 hours at 25° C. The protein was purified to homogeneity onto nickel column and cleaved by o/n dialysis with the TEV protease. A second nickel column was used to separate the cleaved CGS from the TEV and GB1 solubility tag.
The direct activity of CGS was tested using the Malachite Green Phosphate Assay Kit (Sigma-Aldrich, cat #MAK307-1KT). It is a highly sensitive and robust experiment used to measure the release of free orthophosphate group based on quantification of the green-coloured complex formed between Malachite Green, molybdate, and free orthophosphate. The rapid colour formation from the reaction can be conveniently measured on a spectrophotometer via the absorbance at 620 nm.
The assay mixture (100 μl) contained 50 mM MOPS-NaOH (pH 7.5), 150 mM NaCl, 0.1 mM PLP and 1 μM purified CGS. The compounds of the present invention were added at a final concentration of 50 μM and reactions were initiated by adding 2 mM cysteine and 3 mM 0-phospho-L-homo-serine. After two-hour incubation at 25° C., 80 μL of each sample were transferred into a new 96 well-plate containing 20 μl of Malachite Green Reagent and incubated for additional 30 min at 25° C. Colour development was measured by a plate reader Tecan M200 (620 nm).

BY2 Tobacco cells = assay: BY-2 viability assay (PrestoBlue); type: cell-based; details: viability relative to DMSO-treated cells, 25 μM, 48 hours; for Tobacco cells BY-2 (all (relative to DMSO)): Table 3; for Tobacco cells BY-2 results/DMSO: Table 5
Protocol: Reference is now made to FIG. 5 showing the BY-2 viability assay. In this assay, the viability of BY2 Tobacco cells was tested following treatment with the compounds of the present invention. For this purpose, cells were cultured in Murashige and Skoog basal medium (Sigma-Aldrich, Cat #M0404), supplemented with 2,4-dichloro-phenoxyacetic acid (0.2 mg/L), and sucrose (3%), and incubated in the dark, at 25° C. and then sub-cultured at a 1:15 dilution in fresh media every 7 days.
Before treatment, the cell suspension was adjusted to OD=0.4 (at 600 nm) and seeded in 6 well plates with a volume of 3 ml […]. The exemplified compounds were then added to the wells, at a final concentration of 25 μM (0.05% DMSO), and incubated for 48 hours. Cellular viability was measured using the commercially available PrestoBlue™ assay (ThermoFisher Scientific, PrestoBlue™ Cell Viability Reagent Cat #A13261). The PrestoBlue™ reagent is a cell-permeant non-fluorescent compound, which is reduced by metabolically active cells and providing a quantitative fluorescent signal. In the assay, 10 μL of the PrestoBlue™ reagent was added to 90 μL of the treated cells and fluorescence measurements were performed done with excitation/emission wavelengths of 560/590 nm in Tecan M200 plate reader.
Tables 1-3 and also the following Table 5 show the results of the BY-2 viability assay described above.

Tobacco CGS [2] = molecular target: T1, Tobacco CGS; assay: Micro Scale Thermophoresis (MST) direct binding to CGS; design: 6xHIS (N, cleaved yes); GB1 solubility tag (N, cleaved yes); made in house; host or cells: E. coli BL21; details: score on scale 0-5; Table 3
Protocol: The direct binding of the compounds of the embodiments to the CGS was tested by Micro Scale Thermophoresis (MST). In the MST assay, the CGS protein was labelled with a fluorophore, the samples were heated, and changes in fluorescence were measured as a function of the ligand concentration. In the MST assay, similar to the expression and purification described above, the recombinant Tobacco CGS protein was expressed in E. coli BL21 cells and purified to homogeneity. For that particular purpose, the pET-11 vector containing the DNA sequence of Tobacco CGS with an N-terminus 6×HIS tag followed by a TEV-cleavable GB1 solubility tag was cloned and transformed into the bacteria cells. Cells were cultured to OD=0.8, and protein expression was induced by the addition of 1 mM IPTG. The cells were cultured for additional 16 hours temperature 25° C.
Following cellular lysis, the soluble fraction was passed through the nickel column and the bound HIS-tagged protein was eluted by 300 mM imidazole. […]
Thus, the MST assay was performed to measure the biding of the compounds to the CGS protein. […] The MST binding curves were then measured using the Monolith NT.115 apparatus by incubating the labelled protein with the indicated compounds in a dose-response manner.

[3] = system: E. coli cells lacking the endogenic MetB CGS gene and transformed to express the CGS from Arabidopsis; assay: E. coli specificity (MOA): growth of E. coli expressing Arabidopsis CGS with and without methionine; type: cell-based; details: score
Protocol: In addition to the direct binding evaluation, specific assay to test the compounds activity and specificity were also developed. In this assay, E. coli cells, lacking the endogenic MetB CGS gene and transformed to express the CGS from Arabidopsis, were used. These cells were grown on M9 minimal media with and without external methionine supplemented to the cells, in the presence of the compounds of the embodiments. These selected compounds of the embodiments, capable of inhibiting the cell growth on M9, but incapable of affecting the cell growth when supplemented with methionine, were validated as methionine-pathway specific inhibitors.
In this assay, Methionine auxotroph E. coli mutant was transformed with PQE-30 vector containing the Arabidopsis CGS gene as previously described in Yael Hacham et al., Plant Physiol., February 2002, 128(2): 454-462. In order to test the effect of the small molecule inhibitors on the CGS and methionine pathway, growth curves of the E. coli in M9 minimal media with 100 μM IPTG were measured with and without the addition of external methionine (40 mg/L) in the presence of variable compound concentrations. E. coli growth curves were measured by following the optical density at 600 nm of bacteria in 96 well-plate placed within Tecan M200 plate reader in orbital shaking mode at 37° C. The slope of each curve was estimated using the ‘finest’ function in Excel.

Roquette = Roquette assay spray; type: in vivo

COc1cccc2c1[C@@H](C(=O)O)CN2S(=O)(=O)/C=C/c1cccc(Cl)c1
Arabidopsis (relative to DMSO) (Arabidopsis thaliana; Table 1): 0.01 | TEV (relative to DMSO) (Tobacco CGS [1]; Table 1): 0.22 | Tobacco cells BY-2 (relative DMSO) (BY2 Tobacco cells; Table 1): 7

O=C(O)C1Cc2ccccc2N1S(=O)(=O)C1Cc2ccccc2C1 (stereo not shown)
TEV (relative to DMSO) (Tobacco CGS [1]; Table 2): 0.13

Cc1nc(-c2ccc(C)c(S(=O)(=O)Nc3cccc(C(=O)O)c3)c2)cs1 [IML-193]
Arabidopsis root length (Arabidopsis thaliana): 0.50

O=S(=O)(Cc1ccccc1F)Nc1ccc2nncn2c1
Tobacco cells BY-2 (all (relative to DMSO)) (BY2 Tobacco cells): 0 | MST Tobacco (0-5) (Tobacco CGS [2]): 5

O=C(O)C1Cc2ccccc2CN1S(=O)(=O)/C=C/c1ccccc1 (stereo not shown)
E. coli specificity (MOA) ([3]; Table 1): 4 | Arabidopsis (relative to DMSO) (Arabidopsis thaliana; Table 1): 0.20 | Tobacco cells BY-2 (relative DMSO) (BY2 Tobacco cells; Table 1): 46

O=C(O)CC1CN(S(=O)(=O)/C=C/c2ccccc2)c2ccccc21 (stereo not shown)
E. coli specificity (MOA) ([3]; Table 1): 5 | Roquette assay spray (twice average) (Roquette; Table 1): 2.5 | Arabidopsis (relative to DMSO) (Arabidopsis thaliana; Table 1): 0.08 | TEV (relative to DMSO) (Tobacco CGS [1]; Table 1): 0.25 | Tobacco cells BY-2 (relative DMSO) (BY2 Tobacco cells; Table 1): 21

COc1cccc(S(=O)(=O)Nc2cccc(-c3cn(Cc4ccccc4)nn3)c2)c1 [IML-226]
Tobacco cells BY-2 results/DMSO (BY2 Tobacco cells): 60

O=C(O)C1CN(S(=O)(=O)/C=C/c2ccc(Cl)cc2)c2ccccc21 (stereo not shown)
Roquette assay spray (twice average) (Roquette; Table 1): 3.0 | Arabidopsis (relative to DMSO) (Arabidopsis thaliana; Table 1): 0.04 | TEV (relative to DMSO) (Tobacco CGS [1]; Table 1): 0.39 | Tobacco cells BY-2 (relative DMSO) (BY2 Tobacco cells; Table 1): 21

Cc1nc(-c2cccc(S(=O)(=O)Nc3cccc(C(=O)O)c3)c2)cs1 [IML-198]
Arabidopsis root length (Arabidopsis thaliana): 0.31 | TEV-relative to DMSO (Tobacco CGS [1]; Table 6): 0.71

O=C(O)C1Cc2ccccc2N1S(=O)(=O)c1ccc2ccccc2c1 (stereo not shown)
Roquette assay spray (twice average) (Roquette; Table 2): 2.5 | Arabidopsis (relative to DMSO) (Arabidopsis thaliana; Table 2): 0.20 | TEV (relative to DMSO) (Tobacco CGS [1]; Table 2): 0.09 | Tobacco cells BY-2 (relative DMSO) (BY2 Tobacco cells; Table 2): 30

Cc1ccccc1CS(=O)(=O)Nc1ccc2nncn2c1
E. coli specificity (MOA) ([3]; Table 3): 5 | Tobacco cells BY-2 (all (relative to DMSO)) (BY2 Tobacco cells): 0

O=C(O)CC1CN(S(=O)(=O)/C=C/c2ccc(Cl)cc2)c2ccccc21 (stereo not shown)
E. coli specificity (MOA) ([3]; Table 1): 2 | Roquette assay spray (twice average) (Roquette; Table 1): 3.0 | Arabidopsis (relative to DMSO) (Arabidopsis thaliana; Table 1): 0.04 | Tobacco cells BY-2 (relative DMSO) (BY2 Tobacco cells; Table 1): 12

CCc1nc(-c2cccc(NS(=O)(=O)c3cccc(OC)c3)c2)no1 [IML-227]
Arabidopsis root length (Arabidopsis thaliana): 0.36 | Tobacco cells BY-2 results/DMSO (BY2 Tobacco cells): 33

COc1cccc2c1CC(C(=O)O)N2S(=O)(=O)/C=C/c1ccccc1Cl (stereo not shown)
Roquette assay spray (twice average) (Roquette; Table 1): 2.0 | Arabidopsis (relative to DMSO) (Arabidopsis thaliana; Table 1): 0.24 | Tobacco cells BY-2 (relative DMSO) (BY2 Tobacco cells; Table 1): 17
